Test results reported in patent US12612394B2, “Herbicidal malonamides” (BASF SE, priority 2020, dated 2026).

Columns and labels:
ECHCG = assay: greenhouse experiment, pre-emergence treatment; type: in vivo, Echinocloa crus-galli; conditions: application rate 1,000 kg/ha, pre-emergence method
Description: (§1) The culture containers used were plastic flowerpots containing loamy sand with approximately 3.0% of humus as the substrate. The seeds of the test plants were sown separately for each species.
(§2) For the pre-emergence treatment, the active ingredients, which had been suspended or emulsified in water, were applied directly after sowing by means of finely distributing nozzles. The containers were irrigated gently to promote germination and growth and subsequently covered with transparent plastic hoods until the test plants had rooted. This cover caused uniform germination of the test plants, unless this had been impaired by the active ingredients. For the post-emergence treatment, the test plants were first grown to a height of 3 to 15 cm, depending on the plant habit, and only then treated with the active ingredients which had been suspended or emulsified in water. For this purpose, the test plants were either sown directly and grown in the same containers, or they were first grown separately as seedlings and transplanted into the test containers a few days prior to treatment.
(§3) Depending on the species, the test plants were kept at 10-25° C. or 20-35° C., respectively. The test period extended over 2 to 4 weeks. During this time, the test plants were tended, and their response to the individual treatments was evaluated.
(§4) Evaluation was carried out using a scale from 0 to 100. […]

AMARE [1] = assay: greenhouse experiment, pre-emergence treatment; type: in vivo, Amaranthus retroflexus; conditions: application rate 1,000 kg/ha, pre-emergence method
Description: as §1, §2, §3, §4

ABUTH = assay: greenhouse experiment, pre-emergence treatment; type: in vivo, Abutilon theophrasti; conditions: application rate 0.125 kg/ha, pre-emergence method
Description: as §1, §2, §3, §4

APESV = assay: greenhouse experiment, post-emergence treatment; type: in vivo, Apera spica-venti; conditions: application rate 0.500 kg/ha, post-emergence method
Description: as §1, §2, §3, §4

ALOMY = assay: greenhouse experiment, pre-emergence treatment; type: in vivo, Alopercurus myosuroides; conditions: application rate 0.125 kg/ha, pre-emergence method
Description: as §1, §2, §3, §4

SETFA = assay: greenhouse experiment, pre-emergence treatment; type: in vivo, Setaria faberi; conditions: pre-emergence method
Description: as §1, §2, §3, §4

AMARE [2] = assay: greenhouse experiment, post-emergence treatment; type: in vivo, Amaranthus retroflexus; conditions: application rate 0.125 kg/ha, post-emergence method
Description: as §1, §2, §3, §4

SETVI = assay: greenhouse experiment, post-emergence treatment; type: in vivo, Setaria viridis; conditions: application rate 0.250 kg/ha, post-emergence method
Description: as §1, §2, §3, §4

COC(=O)[C@H]1C[C@@H](NC(=O)C(OC)C(=O)Nc2cc(Cl)cc(Cl)c2)CO1 (relative stereo) [I.40, methyl cis-4-[[3-(3,5-dichloroanilino)-2-methoxy-3-oxo-propanoyl]amino]tetrahydrofuran-2-carboxylate]
herbicidal activity against ECHCG (ECHCG): very good (a very good herbicidal activity is given at values of 90 to 100)

CNC(=O)[C@@H]1C[C@H](NC(=O)C(OC)C(=O)Nc2cc(F)cc(F)c2)CO1 (relative stereo) [I.100]
herbicidal activity against AMARE (AMARE [1]): very good (a very good herbicidal activity is given at values of 90 to 100)

COC(C(=O)Nc1cc(Cl)cc(Cl)c1)C(=O)N[C@H]1C=C[C@@H](C(=O)OC2CC2)C1 (relative stereo) [I.185]
herbicidal activity against ABUTH (ABUTH): very good (a very good herbicidal activity is given at values of 90 to 100)

COC(C(=O)Nc1cc(Cl)cc(Cl)c1)C(=O)NC1CO[C@@H](C(=O)O)C1 (stereo in doubt) [I.60, cis-4-[[3-(3,5-dichloroanilino)-2-methoxy-3-oxo-propanoyl]amino]tetrahydrofuran-2-carboxylate]
herbicidal activity against ECHCG (ECHCG): good (A good herbicidal activity is given at values of 70 to 90)

COC(=O)CC(NC(=O)C(OC)C(=O)Nc1cc(Cl)cc(Cl)c1)C(F)(F)F (stereo not shown) [I.42]
herbicidal activity against APESV (APESV): good (A good herbicidal activity is given at values of 70 to 90)

COC(C(=O)Nc1cc(Cl)cc(Cl)c1)C(=O)N[C@H]1C=C[C@@H](C(=O)OC(C)C)C1 (stereo partly shown) [I.159]
herbicidal activity against ALOMY (ALOMY): very good (a very good herbicidal activity is given at values of 90 to 100) | herbicidal activity against SETFA (SETFA; application rate 0.125 kg/ha): very good (a very good herbicidal activity is given at values of 90 to 100)

COC(=O)C1C=CC(NC(=O)C(OC(F)F)C(=O)Nc2cc(Cl)cc(Cl)c2)C1 (stereo not shown) [I.173]
herbicidal activity against SETFA (SETFA; application rate 0.250 kg/ha): good (A good herbicidal activity is given at values of 70 to 90)

COC(=O)[C@@H]1C=C[C@H](NC(=O)C(OC)C(=O)Nc2cccc(OC(F)(F)C(F)F)c2)C1 (stereo partly shown) [I.192]
herbicidal activity against AMARE (AMARE [2]): good (A good herbicidal activity is given at values of 70 to 90)

COC(=O)[C@@H]1C=C[C@H](NC(=O)C(OC)C(=O)Nc2cc(OC)c(C)c(OC)c2)C1 (stereo partly shown) [I.197]
herbicidal activity against SETVI (SETVI): good (A good herbicidal activity is given at values of 70 to 90)
